Assay results: PubChem BioAssay (NCI)
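Tested at 5 concentrations; 48 h exposure; 96-well plates; endpoints linearly interpolated, else capped at highest concentration. GI50 marks 50% less growth. TGI denotes the concentration required for complete inhibition of growth.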

Assays:
Experiment in all cases: NCI tumour cell line growth inhibition, 48 h
CCRF-CEM leukemia = system: CCRF-CEM leukemia
UO-31 renal = system: UO-31 renal
SK-OV-3 ovarian = system: SK-OV-3 ovarian
HCT-15 colon = system: HCT-15 colon
OVCAR-4 ovarian = system: OVCAR-4 ovarian
SF-268 CNS = system: SF-268 CNS
NCI/ADR-RES ovarian = system: NCI/ADR-RES ovarian
OVCAR-8 ovarian = system: OVCAR-8 ovarian
RPMI-8226 leukemia = system: RPMI-8226 leukemia
SK-MEL-2 melanoma = system: SK-MEL-2 melanoma
NCI-H23 lung = system: NCI-H23 lung
EKVX NSCLC = system: EKVX NSCLC
U251 CNS = system: U251 CNS
COLO 205 colon = system: COLO 205 colon
SF-295 CNS = system: SF-295 CNS
K-562 leukemia = system: K-562 leukemia
UACC-257 melanoma = system: UACC-257 melanoma
HCC-2998 colon = system: HCC-2998 colon
HOP-92 NSCLC = system: HOP-92 NSCLC
A498 renal = system: A498 renal
ACHN renal = system: ACHN renal
IGROV1 ovarian = system: IGROV1 ovarian
MCF7 breast = system: MCF7 breast
OVCAR-3 ovarian = system: OVCAR-3 ovarian
KM12 colon = system: KM12 colon
T-47D breast = system: T-47D breast
SNB-19 CNS = system: SNB-19 CNS
A549 NSCLC = system: A549 NSCLC
NCI-H460 lung = system: NCI-H460 lung
MDA-MB-231 breast = system: MDA-MB-231 breast
DU-145 prostate = system: DU-145 prostate
LOX IMVI melanoma = system: LOX IMVI melanoma
UACC-62 melanoma = system: UACC-62 melanoma
SNB-75 CNS = system: SNB-75 CNS
SN12C renal = system: SN12C renal
HT29 colon = system: HT29 colon
MALME-3M melanoma = system: MALME-3M melanoma
PC-3 prostate = system: PC-3 prostate
M14 melanoma = system: M14 melanoma
SK-MEL-28 melanoma = system: SK-MEL-28 melanoma
SW-620 colon = system: SW-620 colon
SF-539 CNS = system: SF-539 CNS
BT-549 breast = system: BT-549 breast
HL-60(TB) leukemia = system: HL-60(TB) leukemia
NCI-H522 lung = system: NCI-H522 lung
HCT-116 colon = system: HCT-116 colon
NCI-H226 lung = system: NCI-H226 lung
OVCAR-5 ovarian = system: OVCAR-5 ovarian
MOLT-4 leukemia = system: MOLT-4 leukemia
HOP-62 NSCLC = system: HOP-62 NSCLC
TK-10 renal = system: TK-10 renal
SK-MEL-5 melanoma = system: SK-MEL-5 melanoma
RXF 393 renal = system: RXF 393 renal
SR leukemia = system: SR leukemia
HS 578T breast = system: HS 578T breast
CAKI-1 renal = system: CAKI-1 renal
MDA-N = system: MDA-N

CCn1c(=O)c2nc(SC)sc2n(-c2ccc(C)cc2)c1=O
TGI (CCRF-CEM leukemia): > 100 µM
TGI (UO-31 renal): > 100 µM
TGI (SK-OV-3 ovarian): > 100 µM
TGI (HCT-15 colon): > 100 µM
TGI (OVCAR-4 ovarian): > 100 µM
TGI (SF-268 CNS): > 100 µM
TGI (NCI/ADR-RES ovarian): > 100 µM
TGI (OVCAR-8 ovarian): > 100 µM
TGI (RPMI-8226 leukemia): > 100 µM
TGI (SK-MEL-2 melanoma): > 100 µM
TGI (NCI-H23 lung): > 100 µM
GI50 (EKVX NSCLC): 71.4 µM
TGI (EKVX NSCLC): > 100 µM
TGI (U251 CNS): > 100 µM
TGI (COLO 205 colon): > 100 µM
TGI (SF-295 CNS): > 100 µM
TGI (K-562 leukemia): > 100 µM
TGI (UACC-257 melanoma): > 100 µM
TGI (HCC-2998 colon): > 100 µM
TGI (HOP-92 NSCLC): > 100 µM
GI50 (A498 renal): 28.2 µM
TGI (A498 renal): > 100 µM
TGI (ACHN renal): > 100 µM
TGI (IGROV1 ovarian): > 100 µM
TGI (MCF7 breast): > 100 µM
TGI (OVCAR-3 ovarian): > 100 µM
TGI (KM12 colon): > 100 µM
TGI (T-47D breast): > 100 µM
TGI (SNB-19 CNS): > 100 µM
TGI (A549 NSCLC): > 100 µM
TGI (NCI-H460 lung): > 100 µM
TGI (MDA-MB-231 breast): > 100 µM
TGI (DU-145 prostate): > 100 µM
TGI (LOX IMVI melanoma): > 100 µM
GI50 (UACC-62 melanoma): 41.2 µM
TGI (UACC-62 melanoma): > 100 µM
TGI (SNB-75 CNS): > 95.1 µM
TGI (SN12C renal): > 100 µM
TGI (HT29 colon): > 100 µM
TGI (MALME-3M melanoma): > 81.7 µM
TGI (PC-3 prostate): > 100 µM
TGI (M14 melanoma): > 45.2 µM
TGI (SK-MEL-28 melanoma): > 100 µM
TGI (SW-620 colon): > 100 µM
TGI (SF-539 CNS): > 100 µM
GI50 (BT-549 breast): 33 µM
TGI (BT-549 breast): > 100 µM
TGI (HL-60(TB) leukemia): > 100 µM
TGI (NCI-H522 lung): > 100 µM
TGI (HCT-116 colon): > 100 µM
TGI (NCI-H226 lung): > 100 µM
TGI (OVCAR-5 ovarian): > 100 µM
TGI (MOLT-4 leukemia): > 100 µM
TGI (HOP-62 NSCLC): > 100 µM
TGI (TK-10 renal): > 100 µM
TGI (SK-MEL-5 melanoma): > 100 µM
TGI (RXF 393 renal): > 100 µM
TGI (SR leukemia): > 100 µM
TGI (HS 578T breast): > 87.4 µM
GI50 (CAKI-1 renal): > 100 µM
TGI (CAKI-1 renal): > 100 µM
TGI (MDA-N): > 100 µM
